The values that follow are results of earlier work, collected in patent US20260345619A1 (Principia Biopharma Inc., priority 2023, published 2026).

One may read the IC50 as the midpoint of a concentration-inhibition curve.

For series [1] the following is noted: read-out: IC50 for RLK; cited from earlier work.
For series [2], the target named is tyrosine protein kinase TEC. As to conditions: cited from earlier work.

Molecules are shown by their SMILES.

For `CC(C)(C=C(C#N)C(=O)N1CCC[C@@H](n2nc(-c3ccc(Oc4ccccc4)cc3F)c3c(N)ncnc32)C1)N1CCN(C2COC2)CC1` (mixture of isomers) [rilzabrutinib, (R)-2-[3-[4-amino-3-(2-fluoro-4-phenoxy-phenyl)pyrazolo[3,4-d]pyrimidin-1-yl]piperidine-1-carbonyl]-4-methyl-4-[4-(oxetan-3-yl)piperazin-1-yl]pent-2-enenitrile], the 50% inhibitory concentration (IC50) in series [1] was 1.2 nM; in series [2], 0.8 nM.
